Data on three molecules can be found in PMC11898701, “Evaluating Therapeutic Efficacy of the Vascular Disrupting Agent OXi8007 Against Kidney Cancer in Mice” (Cancers, 2025).

Data set [1] can be described thus: Pharmacokinetic study in Renca-luc tumor-bearing BALB/c mice. The class given is in vivo, mouse. The conditions noted are these: for Tmax: read-out: Tmax (converted). Here is the method: Plasma and tissues were harvested at various time points (20 min to 16 h) from Renca-luc tumor-bearing BALB/c male mice following the administration of OXi8007 IP. Mice treated with 250 mg/kg were sacrificed at 20 min (n = 3), 1 h (n = 4), 2 h (n = 4), 4 h (n = 4), 8 h (n = 4), and 16 h (n = 4). Mice were anesthetized, exsanguinated, the tissues were blotted, and then they were weighed and frozen in liquid nitrogen. Homogenized plasma and tissue samples were extracted with acetonitrile with a bead mill; internal standard (CA4 or tri-labeled ^13C-OXi8006) was added to each sample to reach a final concentration of 10 ppb. Samples were centrifuged twice to remove precipitated proteins (16,260× g for 10 min at 4 °C). Clear supernatant was transferred into MS vials, and formic acid was added to a final concentration of 0.1% for LC-MS analysis. […] Mobile phase A consisted of 0.1% v/v formic acid in water, and mobile phase B was acetonitrile, which was mixed by the binary pump with an elution gradient at a flow rate of 0.6 mL/min. Data were analyzed using Xcalibur 4.6 software based on exact masses, and Phoenix WinNonlin 8.5.0 software was used to determine the pharmacokinetic parameters based on a non-compartmental model.

Data set [2] is described as follows: Blood pressure assessment (CODA system). The class given is in vivo, mouse. As for the experimental part: Blood pressure was measured using a CODA system (Kent Scientific, Torrington, CT, USA) on 5 adult male BALB/c mice. Mice were anesthetized with 2% isoflurane in oxygen at 1 dm^3/min and placed on the CODA IR heating pad with a feedback rectal temperature probe and nosecone to maintain anesthesia. An occlusion cuff and VPR cuff were placed on the tail. The baseline measurement was recorded over 30 min, then OXi8007 (250 mg/kg or 325 mg/kg) was administered IP and the blood pressure measurement resumed for 45 min. As positive and negative controls, hydralazine (1 mg/kg) or saline, respectively, were injected IP.

The mark [3] stands for this setting: male, BALB/c, mouse, ip, glucuronide metabolite, brain, after OXi8007 250 mg/kg.
Setting [4] is: male, BALB/c, mouse, ip, glucuronide metabolite, heart, after OXi8007 250 mg/kg.
Where [5] appears, read: male, BALB/c, mouse, ip, glucuronide metabolite, left kidney, after OXi8007 250 mg/kg.
[6] abbreviates: male, BALB/c, mouse, ip, glucuronide metabolite, liver, after OXi8007 250 mg/kg.
Setting [7] is: male, BALB/c, mouse, ip, glucuronide metabolite, lungs, after OXi8007 250 mg/kg.
The mark [8] stands for this setting: male, BALB/c, mouse, ip, glucuronide metabolite, plasma, after OXi8007 250 mg/kg.
Where [9] appears, read: male, BALB/c, mouse, ip, glucuronide metabolite, spleen, after OXi8007 250 mg/kg.
[10] abbreviates: male, BALB/c, mouse, ip, glucuronide metabolite, tumor, after OXi8007 250 mg/kg.
[11] abbreviates: male, BALB/c, mouse, in vivo, ip, 250 mg/kg, brain, after OXi8007 250 mg/kg IP.
The mark [12] stands for this setting: male, BALB/c, mouse, in vivo, ip, 250 mg/kg, heart, after OXi8007 250 mg/kg IP.
The mark [13] stands for this setting: male, BALB/c, mouse, in vivo, ip, 250 mg/kg, left kidney, after OXi8007 250 mg/kg IP.
Where [14] appears, read: male, BALB/c, mouse, in vivo, ip, 250 mg/kg, liver, after OXi8007 250 mg/kg IP.
Setting [15] is: male, BALB/c, mouse, in vivo, ip, 250 mg/kg, lungs, after OXi8007 250 mg/kg IP.
[16] abbreviates: male, BALB/c, mouse, in vivo, ip, 250 mg/kg, plasma, after OXi8007 250 mg/kg IP.
The mark [17] stands for this setting: male, BALB/c, mouse, in vivo, ip, 250 mg/kg, spleen, after OXi8007 250 mg/kg IP.
Setting [18] is: male, BALB/c, mouse, in vivo, ip, 250 mg/kg, tumor and right kidney, after OXi8007 250 mg/kg IP.

Like-named read-outs stand apart in the source and are kept apart here. Marks after values point to notes of the source that are not given here.

Consider `COc1ccc2c(C(=O)c3cc(OC)c(OC)c(OC)c3)c(-c3ccc(OC)c(O[C@@H]4O[C@H](C(=O)O)[C@@H](O)[C@H](O)[C@H]4O)c3)[nH]c2c1` [OXi8006 Glucuronide], for which the Cmax in data set [1] (glucuronide metabolite, brain, counts per tissue sample (40 mg), after OXi8007 250 mg/kg) is given as 0.95 counts × 10^−6; in data set [1] (glucuronide metabolite, heart, counts per tissue sample (40 mg), after OXi8007 250 mg/kg), 9.8 counts × 10^−6; in data set [1] (glucuronide metabolite, left kidney, counts per tissue sample (40 mg), after OXi8007 250 mg/kg), 87.2 counts × 10^−6; in data set [1] (glucuronide metabolite, liver, counts per tissue sample (40 mg), after OXi8007 250 mg/kg), 28.23 counts × 10^−6; in data set [1] (glucuronide metabolite, lungs, counts per tissue sample (40 mg), after OXi8007 250 mg/kg), 20.87 counts × 10^−6; in data set [1] (glucuronide metabolite, plasma, counts per mL, no precise calibration, after OXi8007 250 mg/kg) it was 1266 counts × 10^−6. Besides, the Cmax in data set [1] (glucuronide metabolite, spleen, counts per tissue sample (40 mg), after OXi8007 250 mg/kg) is given as 6.33 counts × 10^−6; in data set [1] (glucuronide metabolite, tumor, counts per tissue sample (40 mg), after OXi8007 250 mg/kg), 11.65 counts × 10^−6. Also, the AUC in data set [1] (glucuronide metabolite, brain, after OXi8007 250 mg/kg) turned out to be 4.13 h × counts × 10^−6; in data set [1] (glucuronide metabolite, heart, after OXi8007 250 mg/kg) it was 24.52 h × counts × 10^−6; in data set [1] (glucuronide metabolite, left kidney, after OXi8007 250 mg/kg), 180.6 h × counts × 10^−6; in data set [1] (glucuronide metabolite, liver, after OXi8007 250 mg/kg) it was 128.7 h × counts × 10^−6; in data set [1] (glucuronide metabolite, lungs, after OXi8007 250 mg/kg) it was 69.33 h × counts × 10^−6; in data set [1] (glucuronide metabolite, plasma, no precise calibration, after OXi8007 250 mg/kg) it was 3490 h × counts × 10^−6. Moreover, the AUC is reported as 18.39 h × counts × 10^−6 in data set [1] (glucuronide metabolite, spleen, after OXi8007 250 mg/kg) and 118.22 h × counts × 10^−6 in data set [1] (glucuronide metabolite, tumor, after OXi8007 250 mg/kg). The half-life is 1.15 h in data set [1] (setting [3]); 1.61 h in data set [1] (setting [4]); 3.75 h in data set [1] (setting [5]); 3.37 h in data set [1] (setting [6]); 2.05 h in data set [1] (setting [7]); 1.95 h in data set [1] (setting [8]). Besides, the figures for the half-life in data set [1] (setting [9]) and in data set [1] (setting [10]) were 2.2 h and 5.87 h, respectively. Moreover, the Tmax in data set [1] (setting [3]), in data set [1] (setting [4]), in data set [1] (setting [5]), in data set [1] (setting [6]), in data set [1] (setting [7]) and in data set [1] (setting [8]) was 1 h throughout. In addition, the Tmax in data set [1] (setting [9]) is 1 h; in data set [1] (setting [10]), 4 h.

As to `COc1ccc2c(C(=O)c3cc(OC)c(OC)c(OC)c3)c(-c3ccc(OC)c(O)c3)[nH]c2c1` [OXi8006], the AUC in data set [1] (brain, after OXi8007 250 mg/kg IP) was 0.54 ng·h/mg; in data set [1] (heart, after OXi8007 250 mg/kg IP) it was 9.04 ng·h/mg; in data set [1] (left kidney, after OXi8007 250 mg/kg IP), 8.72 ng·h/mg; in data set [1] (liver, after OXi8007 250 mg/kg IP), 18.19 ng·h/mg; in data set [1] (lungs, after OXi8007 250 mg/kg IP), 9.45 ng·h/mg; in data set [1] (plasma, after OXi8007 250 mg/kg IP, zero to last quantifiable concentration) it was 47 ^# h × ng/µL. The AUC in data set [1] (spleen, after OXi8007 250 mg/kg IP) turned out to be 9.88 ng·h/mg; in data set [1] (tumor and right kidney, after OXi8007 250 mg/kg IP), 10.24 ng·h/mg. The half-life is 1.71 h in data set [1] (setting [11]); 2.02 h in data set [1] (setting [12]); 1.73 h in data set [1] (setting [13]); 2.25 h in data set [1] (setting [14]); 2.56 h in data set [1] (setting [15]); 1.98 h in data set [1] (setting [16]). Also, the half-life in data set [1] (male, BALB/c, mouse, in vivo, ip, 250 mg/kg, plasma, after OXi8007 250 mg/kg IP, Renca-luc tumor-bearing BALB/c mice) was 1.99 h; in data set [1] (setting [17]), 1.72 h; in data set [1] (setting [18]) it was 4.23 h. In addition, the Cmax worked out at 220 ng/g in data set [1] (male, BALB/c, mouse, in vivo, ip, 250 mg/kg, brain, after OXi8007 250 mg/kg IP, read-out: Cmax); 5310 ng/g in data set [1] (male, BALB/c, mouse, in vivo, ip, 250 mg/kg, heart, after OXi8007 250 mg/kg IP, read-out: Cmax); 5860 ng/g in data set [1] (male, BALB/c, mouse, in vivo, ip, 250 mg/kg, left kidney, after OXi8007 250 mg/kg IP, read-out: Cmax); 9160 ng/g in data set [1] (male, BALB/c, mouse, in vivo, ip, 250 mg/kg, liver, after OXi8007 250 mg/kg IP, read-out: Cmax); 4180 ng/g in data set [1] (male, BALB/c, mouse, in vivo, ip, 250 mg/kg, lungs, after OXi8007 250 mg/kg IP, read-out: Cmax); 29000 ng/mL in data set [1] (male, BALB/c, mouse, in vivo, ip, 250 mg/kg, plasma, after OXi8007 250 mg/kg IP, read-out: Cmax). For the same molecule, the Cmax was 4450 ng/g in data set [1] (male, BALB/c, mouse, in vivo, ip, 250 mg/kg, spleen, after OXi8007 250 mg/kg IP, read-out: Cmax); 2390 ng/g in data set [1] (male, BALB/c, mouse, in vivo, ip, 250 mg/kg, tumor and right kidney, after OXi8007 250 mg/kg IP, read-out: Cmax). Moreover, the Tmax in data set [1] (setting [11]), in data set [1] (setting [12]), in data set [1] (setting [13]), in data set [1] (setting [14]), in data set [1] (setting [15]) and in data set [1] (setting [16]) was 0.333 h throughout. For the same molecule, the Tmax in data set [1] (setting [17]) is 0.333 h; in data set [1] (setting [18]), 1 h.

On to `NNc1nncc2ccccc12` [hydralazine, reference compound], for which the “Hypotension (Δ BP)” value in data set [2] (1 mg/kg) is ~ 35 mmHg. In data set [2] (1 mg/kg IP), the “Drop in diastolic blood pressure (Δ)” value stood at 31 mmHg, the “Drop in mean blood pressure (Δ)” value came to 34 mmHg and the “Drop in systolic blood pressure (Δ)” value amounted to 40 mmHg. The “Drop in blood pressure” value in data set [2] (1 mg/kg IP, positive control) is listed as “about 30%”.

For orientation: half-life means how long it takes for the measured level to halve.
